Results as given in ChEMBL document CHEMBL1201862, “PubChem BioAssay data set” (2004).
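Five concentrations, 48 hours, 96-well plates. GI50 is the concentration that inhibits growth by half.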 The source made the active and inactive calls. No stated cut-off is given here; in the data, active = GI50 up to about 1.1 µM and inactive = higher.

Assays:
Assay in all cases: NCI tumour cell line growth inhibition, 48 h
COLO 205 = tested on: COLO 205
EKVX = tested on: EKVX
K562 = tested on: K562
MOLT-4 = tested on: MOLT-4
HOP-62 = tested on: HOP-62
ACHN = tested on: ACHN
OVCAR-5 = tested on: OVCAR-5
SF-539 = tested on: SF-539
KM12 = tested on: KM12
SF-295 = tested on: SF-295
CCRF-CEM = tested on: CCRF-CEM
HL-60 = tested on: HL-60
NCI-H226 = tested on: NCI-H226
NCI-H460 = tested on: NCI-H460
SNB-19 = tested on: SNB-19
HOP-92 = tested on: HOP-92
A498 = tested on: A498

Measured: GI50

NC1=NN(c2ccccc2)C(=O)C1C(=O)CCC(=O)Nc1cccc(C(F)(F)F)c1 (centres undefined)
inactive: COLO 205 > 100 µM | EKVX > 100 µM | K562 35.2 µM | MOLT-4 > 100 µM | HOP-62 > 100 µM | ACHN 23.1 µM | OVCAR-5 > 100 µM | SF-539 > 100 µM | KM12 > 100 µM | SF-295 > 100 µM | CCRF-CEM > 100 µM | HL-60 > 100 µM | NCI-H226 > 100 µM | NCI-H460 > 100 µM | SNB-19 > 100 µM | HOP-92 > 100 µM

c1ccc(SCCCC(Sc2ccccc2)Sc2ccccc2)cc1
inactive: COLO 205 > 100 µM | A498 > 100 µM | EKVX > 100 µM | K562 > 100 µM | MOLT-4 > 100 µM | HOP-62 > 100 µM | ACHN > 100 µM | SF-539 > 100 µM | KM12 > 100 µM | SF-295 > 100 µM | CCRF-CEM > 100 µM | HL-60 > 100 µM | NCI-H460 > 100 µM | SNB-19 > 100 µM | HOP-92 49.9 µM

N#CCCC(C#N)(C#N)CCC#N
inactive: COLO 205 > 100 µM | EKVX > 100 µM | K562 > 100 µM | MOLT-4 > 100 µM | HOP-62 > 100 µM | ACHN > 100 µM | SF-539 > 100 µM | KM12 > 100 µM | SF-295 > 100 µM | CCRF-CEM > 10 µM | HL-60 > 100 µM | NCI-H226 > 100 µM | NCI-H460 > 100 µM | SNB-19 > 100 µM

Nc1nc(O)c([N+](=O)[O-])c(NCCOCP(=O)(O)O)n1
inactive: COLO 205 > 100 µM | EKVX > 100 µM | K562 > 100 µM | MOLT-4 > 100 µM | HOP-62 > 100 µM | ACHN > 100 µM | SF-539 > 100 µM | KM12 > 100 µM | SF-295 > 100 µM | CCRF-CEM > 100 µM | HL-60 > 100 µM | NCI-H226 > 100 µM | NCI-H460 > 100 µM | SNB-19 > 100 µM | HOP-92 > 100 µM

O=c1[nH]c(=O)n(C2CC(O)C(CO)O2)cc1COCC(F)(F)F (centres undefined)
inactive: COLO 205 > 100 µM | A498 > 100 µM | EKVX > 100 µM | K562 > 100 µM | MOLT-4 > 100 µM | HOP-62 > 100 µM | ACHN > 100 µM | OVCAR-5 > 100 µM | SF-539 > 100 µM | KM12 > 100 µM | SF-295 > 100 µM | CCRF-CEM 86.5 µM | HL-60 > 100 µM | NCI-H460 > 100 µM | SNB-19 > 100 µM | HOP-92 > 100 µM

O=C(Nc1cc(Cl)ccc1Cl)c1cc2ccccc2oc1=O
inactive: COLO 205 > 100 µM | EKVX > 100 µM | K562 > 100 µM | MOLT-4 94.8 µM | HOP-62 45.6 µM | ACHN 39.3 µM | SF-539 > 100 µM | KM12 > 100 µM | SF-295 43.3 µM | CCRF-CEM 46.8 µM | HL-60 > 100 µM | NCI-H460 53.2 µM

CCP(C)(=O)CC
inactive: COLO 205 > 100 µM | EKVX > 100 µM | K562 > 100 µM | MOLT-4 > 100 µM | HOP-62 > 100 µM | ACHN > 100 µM | OVCAR-5 > 100 µM | SF-539 > 100 µM | KM12 > 100 µM | SF-295 > 100 µM | CCRF-CEM > 100 µM | HL-60 > 100 µM | NCI-H226 > 100 µM | NCI-H460 > 100 µM | SNB-19 > 100 µM | HOP-92 > 100 µM

CC(C)(C)/N=C1/CC(C)(C)c2ccccc2/C(=N\c2ccccc2)S1
inactive: COLO 205 23.3 µM | A498 43 µM | EKVX 55.5 µM | K562 26.4 µM | MOLT-4 14.8 µM | HOP-62 44.7 µM | ACHN 28.2 µM | OVCAR-5 37.9 µM | SF-539 60.4 µM | KM12 26.8 µM | SF-295 32.4 µM | CCRF-CEM 26.9 µM | HL-60 12.2 µM | NCI-H226 47.3 µM | NCI-H460 30.1 µM | SNB-19 36.2 µM

N#CC(NNC(=O)c1ccccc1O)c1ccc(O)cc1 (centres undefined)
inactive: COLO 205 29.2 µM | K562 3.1 µM | MOLT-4 4.17 µM | HOP-62 22.5 µM | ACHN 2.33 µM | OVCAR-5 17.6 µM | SF-539 3.78 µM | KM12 4.94 µM | SF-295 4.38 µM | CCRF-CEM 4.93 µM | HL-60 5.32 µM | NCI-H226 3.21 µM | NCI-H460 3.79 µM | HOP-92 3.48 µM

O=C(/C=N/O)Nc1cccc(Cl)c1I
inactive: COLO 205 89.9 µM | A498 27.7 µM | EKVX 8.83 µM | K562 53.5 µM | MOLT-4 42.3 µM | HOP-62 83.4 µM | ACHN 57.4 µM | OVCAR-5 > 100 µM | KM12 65.6 µM | SF-295 50.7 µM | CCRF-CEM 49.1 µM | HL-60 34.4 µM | NCI-H226 > 100 µM | NCI-H460 > 100 µM | SNB-19 55.7 µM
